Reference: patent US12208071B2, “Glucagon receptor antagonists” (LIGAND PHARMACEUTICALS INCORPORATED, priority 2018, dated 2025)

Assays:
[1] = Intrinsic dissolution rate (IDR); format: physicochemical; settings: for Detection in dissolution medium (IDR test): total 120 min
Procedure: Testing media: water, 0.1N HCl, pH 6.8 USP buffer
About 200 mg Polymorph Form A was weighed into the intrinsic dissolution apparatus (diameter: 0.795 cm) and compressed for 1 minute with 1 ton compression force to make the material compact. The intrinsic dissolution apparatus was slid into the dissolution test chuck and tightened. The shaft in the spindle was adjusted to ensure the exposed surface of the compacted tablet was 3.8 cm from the bottom of the vessel when lowered. The temperature of chamber water was set at 37° C., the shaft rotation at 100 rpm, and the sampling time points at 2, 5, 10, 15, 20, 30, 45, 60, 90 and 120 min. 5 mL of solution was sampled at each time point, and the samples filtered with 0.45 μm filter. The concentration of the filtrates was analyzed by HPLC.

[2] = Hygroscopicity (DVS) of Polymorph Form A; format: physicochemical
Procedure: Details of DVS method used in the tests are summarized below: • Test the sorption/desorption profile of testing compound at 25° C. under 0-90% relative humidity. 3.3 HPLC Method
About 10 mg Polymorph Form A was weighed and the sorption/desorption profiles were set at 25° C. under 0-90% relative humidity. The compound after testing was also subjected to an XRPD test to determine if any polymorph changes exist after exposure to a cycle of humidity change.

[3] = 25° C., Cycle 1, target 0.0 % P/Po
[4] = 25° C., Cycle 1, target 10.0 % P/Po
[5] = 25° C., Cycle 1, target 20.0 % P/Po
[6] = 25° C., Cycle 1, target 30.0 % P/Po
[7] = 25° C., Cycle 1, target 40.0 % P/Po
[8] = 25° C., Cycle 1, target 50.0 % P/Po
[9] = 25° C., Cycle 1, target 60.0 % P/Po
[10] = 25° C., Cycle 1, target 70.0 % P/Po
[11] = 25° C., Cycle 1, target 80.0 % P/Po
[12] = 25° C., Cycle 1, target 90.0 % P/Po

Detection in dissolution medium (IDR test) ([1]; 0.1N HCl): could not be detected
Intrinsic dissolution rate (mg/cm^2/min) ([1]; Water, 37° C., 100 rpm, from data of 10, 15 and 20 min): 0.9681 mg/cm^2/min
Detection in dissolution medium (IDR test) ([1]; pH 6.8 USP buffer): could not be detected
Concentration in dissolution medium (IDR test) ([1]; water, within 5 min, not detected, LOQ): < 305.1 ng/mL
Change in Mass (%)-ref, Desorption [2, 3]: 0.20%
Change in Mass (%)-ref, Sorption [2, 3]: 0.00%
Change in Mass (%)-ref, Desorption [2, 4]: 1.64%
Change in Mass (%)-ref, Hysteresis [2, 4]: 0.29%
Change in Mass (%)-ref, Sorption [2, 4]: 1.35%
Change in Mass (%)-ref, Desorption [2, 5]: 2.73%
Change in Mass (%)-ref, Hysteresis [2, 5]: 0.39%
Change in Mass (%)-ref, Sorption [2, 5]: 2.34%
Change in Mass (%)-ref, Desorption [2, 6]: 4.08%
Change in Mass (%)-ref, Hysteresis [2, 6]: 0.50%
Change in Mass (%)-ref, Sorption [2, 6]: 3.58%
Change in Mass (%)-ref, Desorption [2, 7]: 5.48%
Change in Mass (%)-ref, Hysteresis [2, 7]: 0.63%
Change in Mass (%)-ref, Sorption [2, 7]: 4.85%
Change in Mass (%)-ref, Desorption [2, 8]: 6.98%
Change in Mass (%)-ref, Hysteresis [2, 8]: 0.87%
Change in Mass (%)-ref, Sorption [2, 8]: 6.11%
Change in Mass (%)-ref, Desorption [2, 9]: 8.08%
Change in Mass (%)-ref, Hysteresis [2, 9]: 0.39%
Change in Mass (%)-ref, Sorption [2, 9]: 7.69%
Change in Mass (%)-ref, Desorption [2, 10]: 13.12%
Change in Mass (%)-ref, Hysteresis [2, 10]: 3.90%
Change in Mass (%)-ref, Sorption [2, 10]: 9.21%
Change in Mass (%)-ref, Desorption [2, 11]: 16.12%
Change in Mass (%)-ref, Hysteresis [2, 11]: 1.04%
Change in Mass (%)-ref, Sorption [2, 11]: 15.09%
Change in Mass (%)-ref, Desorption [2, 12]: 20.08%
Change in Mass (%)-ref, Sorption [2, 12]: 20.08%
Hygroscopicity classification ([2]; DVS, 0 to 90% RH, 25° C.): very hygroscopic
XRPD after hygroscopicity test ([2]; after a cycle of humidity change): no change
weight gain ([2]; from 0 to 90% RH, 25° C.): 20.08%
SMILES: Cc1cc(C)c(-c2ccc(NC(=O)[C@H](Cc3ccc(C(=O)NCCS(=O)(=O)[O-])cc3)c3ccc(-c4ccc(C(C)(C)C)cc4)cc3)cc2)c(C)c1.[Na+] [Polymorph Form A, Sodium (R)-2-(4-(2-(4′-(tert-butyl)-[1,1′-biphenyl]-4-yl)-3-oxo-3-((2′,4′,6′-trimethyl-[1,1′-biphenyl]-4-yl)amino)propyl)benzamido)ethane-1-sulfonate]
